Experimental data published in US8920832B2, “Composition for nucleic acid transfection” (Hokkaido System Science Co., Ltd., priority 2006, dated 2014).

How the values were obtained:
HT1080 cells [1] = assay: DNA (pCMV-SPORT-βgal) transfection into HT1080 cells: β-gal activity; format: cell-based
Source text: (§1) The procedure of Test Example 5 was repeated, except that HeLa cells were replaced with HT1080 cells.
(§2) The procedure of Test Example 7 was repeated, except that HeLa cells were replaced with HT1080 cells.

HT1080 cells [2] = assay: Cytotoxicity score under microscope after DNA transfection, HT1080 cells; format: cell-based; parameters: scale not given here
Source text: as §1, §2

HeLa cells [3] = assay: DNA (pCMV-SPORT-βgal) transfection into HeLa cells: β-gal activity; conditions: for β-gal activity: HeLa; for effect of enhancer on nucleic-acid-transfecting performance and cytotoxicity, in words: enhancer added to liposome solution of Formulation Example 4, summary of Tables 13 and 14 (HeLa and HT1080)
Protocol: (§3) HeLa cells were inoculated into a 96-well plate (7,500 cells/100 μL/well), followed by culturing for about 24 hours. DNA (pCMV-SPORT-βgal) was diluted with a DMEM medium, to thereby prepare a DNA-diluted solution having a DNA concentration of 8 μg/mL (for the case of 200 ng/well). […] The thus-obtained solution or Lipofectamine 2000 as a positive control (product of Invitrogen) was diluted with a DMEM medium so that the amount of the reconstituted liposome solution or Lipofectamine 2000 added to cells was “Amount of liposomes added (μL/well)” shown in Table 9 or 10. Immediately after dilution, the DNA-diluted solution (25 μL) was added to and mixed with the liposome-diluted solution (25 μL), and the mixture was allowed to stand still at room temperature for 30 minutes, to thereby form a DNA/liposome complex. The DNA/liposome complex (50 μL) was added to the inoculated HeLa cells (about 70 to about 90% confluent), to thereby initiate transfection. After culturing at 37° C. and 5% CO2 for one hour, a 10% FBS/DMEM medium (100 μL) was added to the culture liquid, followed by culturing at 37° C. and 5% CO2 for about 21 hours.
The culture supernatant was removed, and the cells were washed with PBS(−). Thereafter, determination of β-galactosidase (hereinafter may be abbreviated as “β-gal”) activity, quantitative determination of protein, and viable cell counting were carried out as described below.
After complete removal of PBS through suction, a lysis buffer (30 μL) was added to the cells, and the mixture was stirred and then allowed to stand still at −80° C. for 30 minutes or longer for freezing. After rapid thawing in a water bath at 37° C., the mixture was again allowed to stand still at −80° C. for 30 minutes or longer for freezing, followed by rapid thawing in a water bath at 37° C. Thereafter, centrifugation was carried out (2,000 g×10 minutes), and the resultant supernatant (sample) (10 μL) was added to a 96-well microplate.
Determination of β-gal activity was carried out by means of a β-gal assay kit (product of Invitrogen). […] A 2-Me-containing cleavage buffer was added (50 μL/well) to the sample or each of the standard-diluted solutions (10 μL), and 4 mg/mL aqueous ONPG solution was added (17 μL/well), followed by incubation at 37° C. for 30 minutes. After completion of incubation, a stop buffer was added (120 μL/well) for termination of reaction, and absorbance was measured at 405 nm.
(§4) Each of the enhancers shown in Table 13 was diluted with a DMEM medium to different concentrations so that the amount of the enhancer finally added to cells was “Enhancer amount (μg/well)” shown in Table 13. […] The thus-diluted liposome solution was added to an equiamount of the above-diluted enhancer, followed by incubation at room temperature for 20 minutes. […] Subsequently, cytotoxicity was evaluated according to the aforementioned scores, and determination of β-gal activity, quantitative determination of protein, and viable cell counting were carried out.

HeLa cells [4] = assay: Cytotoxicity score under microscope after DNA transfection, HeLa cells; format: cell-based
Protocol: as §3, §4

[5] = Formulation Example 4 0.38 μL/well, enhancer 0.00625 μg/well
[6] = Formulation Example 4 0.38 μL/well, enhancer 0.0125 μg/well
[7] = Formulation Example 4 0.38 μL/well, enhancer 0.025 μg/well
[8] = Formulation Example 4 0.38 μL/well, enhancer 0.05 μg/well
[9] = Formulation Example 4 0.38 μL/well, enhancer 0.1 μg/well
[10] = Formulation Example 4 0.75 μL/well, enhancer 0.00625 μg/well
[11] = Formulation Example 4 0.75 μL/well, enhancer 0.0125 μg/well
[12] = Formulation Example 4 0.75 μL/well, enhancer 0.025 μg/well
[13] = Formulation Example 4 0.75 μL/well, enhancer 0.05 μg/well
[14] = Formulation Example 4 0.75 μL/well, enhancer 0.1 μg/well
[15] = Formulation Example 4 0.38 μL/well, enhancer 0.625 μg/well
[16] = Formulation Example 4 0.38 μL/well, enhancer 1.25 μg/well
[17] = Formulation Example 4 0.38 μL/well, enhancer 2.5 μg/well
[18] = Formulation Example 4 0.38 μL/well, enhancer 5 μg/well
[19] = Formulation Example 4 0.38 μL/well, enhancer 10 μg/well
[20] = Formulation Example 4 0.75 μL/well, enhancer 0.625 μg/well
[21] = Formulation Example 4 0.75 μL/well, enhancer 1.25 μg/well
[22] = Formulation Example 4 0.75 μL/well, enhancer 2.5 μg/well
[23] = Formulation Example 4 0.75 μL/well, enhancer 5 μg/well
[24] = Formulation Example 4 0.75 μL/well, enhancer 10 μg/well
[25] = Formulation Example 4 0.38 μL/well, enhancer 6.25 μg/well
[26] = Formulation Example 4 0.38 μL/well, enhancer 12.5 μg/well
[27] = Formulation Example 4 0.38 μL/well, enhancer 25 μg/well
[28] = Formulation Example 4 0.38 μL/well, enhancer 50 μg/well
[29] = Formulation Example 4 0.38 μL/well, enhancer 100 μg/well
[30] = Formulation Example 4 0.75 μL/well, enhancer 6.25 μg/well
[31] = Formulation Example 4 0.75 μL/well, enhancer 12.5 μg/well
[32] = Formulation Example 4 0.75 μL/well, enhancer 25 μg/well
[33] = Formulation Example 4 0.75 μL/well, enhancer 50 μg/well
[34] = Formulation Example 4 0.75 μL/well, enhancer 100 μg/well

pronectin
β-gal activity (HT1080 cells [1]; [5]): 87.2 mU/well | β-gal activity (HT1080 cells [1]; [6]): 70.2 mU/well | β-gal activity (HT1080 cells [1]; [7]): 52.0 mU/well | β-gal activity (HT1080 cells [1]; [8]): 3.3 mU/well | β-gal activity (HT1080 cells [1]; [9]): 0.3 mU/well | β-gal activity (HT1080 cells [1]; [10]): 102.6 mU/well | β-gal activity (HT1080 cells [1]; [11]): 107.3 mU/well | β-gal activity (HT1080 cells [1]; [12]): 92.1 mU/well | β-gal activity (HT1080 cells [1]; [13]): 16.0 mU/well | β-gal activity (HT1080 cells [1]; [14]): 4.4 mU/well | Cytotoxicity score (HT1080 cells [2]; [5]): 1.5 | Cytotoxicity score (HT1080 cells [2]; [6]): 1.0 | Cytotoxicity score (HT1080 cells [2]; [7]): 0.5 | Cytotoxicity score (HT1080 cells [2]; [8]): 1.0 | Cytotoxicity score (HT1080 cells [2]; [9]): 1.0 | Cytotoxicity score (HT1080 cells [2]; [10]): 3.0 | Cytotoxicity score (HT1080 cells [2]; [11]): 3.0 | Cytotoxicity score (HT1080 cells [2]; [12]): 2.5 | Cytotoxicity score (HT1080 cells [2]; [13]): 2.5 | Cytotoxicity score (HT1080 cells [2]; [14]): 2.0 | β-gal activity (HeLa cells [3]; [5]): 23.3 mU/well | β-gal activity (HeLa cells [3]; [6]): 19.4 mU/well | β-gal activity (HeLa cells [3]; [7]): 15.5 mU/well | β-gal activity (HeLa cells [3]; [8]): 3.2 mU/well | β-gal activity (HeLa cells [3]; [9]): 0.8 mU/well | β-gal activity (HeLa cells [3]; [10]): 28.7 mU/well | β-gal activity (HeLa cells [3]; [11]): 25.1 mU/well | β-gal activity (HeLa cells [3]; [12]): 16.2 mU/well | β-gal activity (HeLa cells [3]; [13]): 6.2 mU/well | β-gal activity (HeLa cells [3]; [14]): 2.3 mU/well | effect of enhancer on nucleic-acid-transfecting performance and cytotoxicity, in words (HeLa cells [3]): excellent effects | Cytotoxicity score (HeLa cells [4]; [5]): 2.0 | Cytotoxicity score (HeLa cells [4]; [6]): 2.0 | Cytotoxicity score (HeLa cells [4]; [7]): 2.0 | Cytotoxicity score (HeLa cells [4]; [8]): 1.5 | Cytotoxicity score (HeLa cells [4]; [9]): 2.0 | Cytotoxicity score (HeLa cells [4]; [10]): 4.0 | Cytotoxicity score (HeLa cells [4]; [11]): 3.5 | Cytotoxicity score (HeLa cells [4]; [12]): 3.5 | Cytotoxicity score (HeLa cells [4]; [13]): 3.0 | Cytotoxicity score (HeLa cells [4]; [14]): 3.0

protamine
β-gal activity (HT1080 cells [1]; [15]): 79.3 mU/well | β-gal activity (HT1080 cells [1]; [16]): 61.5 mU/well | β-gal activity (HT1080 cells [1]; [17]): 23.1 mU/well | β-gal activity (HT1080 cells [1]; [18]): 4.1 mU/well | β-gal activity (HT1080 cells [1]; [19]): 2.7 mU/well | β-gal activity (HT1080 cells [1]; [20]): 103.9 mU/well | β-gal activity (HT1080 cells [1]; [21]): 103.9 mU/well | β-gal activity (HT1080 cells [1]; [22]): 49.8 mU/well | β-gal activity (HT1080 cells [1]; [23]): 19.5 mU/well | β-gal activity (HT1080 cells [1]; [24]): 15.1 mU/well | Cytotoxicity score (HT1080 cells [2]; [15]): 1.5 | Cytotoxicity score (HT1080 cells [2]; [16]): 1.5 | Cytotoxicity score (HT1080 cells [2]; [17]): 1.0 | Cytotoxicity score (HT1080 cells [2]; [18]): 0.5 | Cytotoxicity score (HT1080 cells [2]; [19]): 0.5 | Cytotoxicity score (HT1080 cells [2]; [20]): 2.5 | Cytotoxicity score (HT1080 cells [2]; [21]): 2.0 | Cytotoxicity score (HT1080 cells [2]; [22]): 2.0 | Cytotoxicity score (HT1080 cells [2]; [23]): 2.0 | Cytotoxicity score (HT1080 cells [2]; [24]): 1.0 | β-gal activity (HeLa cells [3]; [15]): 30.4 mU/well | β-gal activity (HeLa cells [3]; [16]): 9.8 mU/well | β-gal activity (HeLa cells [3]; [17]): 4.8 mU/well | β-gal activity (HeLa cells [3]; [18]): 0.9 mU/well | β-gal activity (HeLa cells [3]; [19]): 0.1 mU/well | β-gal activity (HeLa cells [3]; [20]): 46.2 mU/well | β-gal activity (HeLa cells [3]; [21]): 26.3 mU/well | β-gal activity (HeLa cells [3]; [22]): 10.1 mU/well | β-gal activity (HeLa cells [3]; [23]): 3.1 mU/well | β-gal activity (HeLa cells [3]; [24]): 0.5 mU/well | effect of enhancer on nucleic-acid-transfecting performance and cytotoxicity, in words (HeLa cells [3]): excellent effects | Cytotoxicity score (HeLa cells [4]; [15]): 1.5 | Cytotoxicity score (HeLa cells [4]; [16]): 0.5 | Cytotoxicity score (HeLa cells [4]; [17]): 0.5 | Cytotoxicity score (HeLa cells [4]; [18]): 0.5 | Cytotoxicity score (HeLa cells [4]; [19]): 0.5 | Cytotoxicity score (HeLa cells [4]; [20]): 3.0 | Cytotoxicity score (HeLa cells [4]; [21]): 1.0 | Cytotoxicity score (HeLa cells [4]; [22]): 0.5 | Cytotoxicity score (HeLa cells [4]; [23]): 0.5 | Cytotoxicity score (HeLa cells [4]; [24]): 0.5

NCCCNCCCCNCCCN [Spermine]
β-gal activity (HT1080 cells [1]; [25]): 31.1 mU/well | β-gal activity (HT1080 cells [1]; [26]): 29.1 mU/well | β-gal activity (HT1080 cells [1]; [27]): 34.9 mU/well | β-gal activity (HT1080 cells [1]; [28]): 21.5 mU/well | β-gal activity (HT1080 cells [1]; [29]): 6.8 mU/well | β-gal activity (HT1080 cells [1]; [30]): 76.5 mU/well | β-gal activity (HT1080 cells [1]; [31]): 64.6 mU/well | β-gal activity (HT1080 cells [1]; [32]): 72.9 mU/well | β-gal activity (HT1080 cells [1]; [33]): 10.9 mU/well | β-gal activity (HT1080 cells [1]; [34]): 1.3 mU/well | Cytotoxicity score (HT1080 cells [2]; [25]): 2.5 | Cytotoxicity score (HT1080 cells [2]; [26]): 2.0 | Cytotoxicity score (HT1080 cells [2]; [27]): 2.5 | Cytotoxicity score (HT1080 cells [2]; [28]): 2.0 | Cytotoxicity score (HT1080 cells [2]; [29]): 1.0 | Cytotoxicity score (HT1080 cells [2]; [30]): 2.0 | Cytotoxicity score (HT1080 cells [2]; [31]): 2.5 | Cytotoxicity score (HT1080 cells [2]; [32]): 3.0 | Cytotoxicity score (HT1080 cells [2]; [33]): 2.0 | Cytotoxicity score (HT1080 cells [2]; [34]): 2.0 | β-gal activity (HeLa cells [3]; [25]): 0.8 mU/well | β-gal activity (HeLa cells [3]; [26]): 1.0 mU/well | β-gal activity (HeLa cells [3]; [27]): 0.2 mU/well | β-gal activity (HeLa cells [3]; [28]): 0.2 mU/well | β-gal activity (HeLa cells [3]; [29]): 0.1 mU/well | β-gal activity (HeLa cells [3]; [30]): 1.8 mU/well | β-gal activity (HeLa cells [3]; [31]): 0.1 mU/well | β-gal activity (HeLa cells [3]; [32]): 0.0 mU/well | β-gal activity (HeLa cells [3]; [33]): 0.1 mU/well | β-gal activity (HeLa cells [3]; [34]): 0.3 mU/well | Cytotoxicity score (HeLa cells [4]; [25]): 0.0 | Cytotoxicity score (HeLa cells [4]; [26]): 0.0 | Cytotoxicity score (HeLa cells [4]; [27]): 0.0 | Cytotoxicity score (HeLa cells [4]; [28]): 2.0 | Cytotoxicity score (HeLa cells [4]; [29]): 2.0 | Cytotoxicity score (HeLa cells [4]; [30]): 4.0 | Cytotoxicity score (HeLa cells [4]; [31]): 4.0 | Cytotoxicity score (HeLa cells [4]; [32]): 4.0 | Cytotoxicity score (HeLa cells [4]; [33]): 4.0 | Cytotoxicity score (HeLa cells [4]; [34]): 2.0
